The values that follow come from PMC2683593 (The Journal of neuroscience : the official journal of the …, 2009).

Common to all, as to type: cell-based, Swiss-Webster mice
The test system of data set [1] is cerebrocortical neurons.
Data set [2] relates to cerebrocortical neurons. The data set is described as follows: Intracellular Ca2+ monitoring.
Data set [3] relates to cerebrocortical neurons. This is another data set of the same source.
In data set [4] the test system is cerebrocortical neurons. The data set is described as follows: Viable neuron count by fluorescein diacetate staining. The settings on record: read-out: EC50 for decreasing the live neuron count, DIV-9, 95% CI 38.4–176 μM.
Another data set has as its system NMDA receptors. The data set is described as follows: Single-channel cell-attached patch recording of NMDA receptor currents.
For data set [5], the system named is cerebrocortical neurons. The data set is described as follows: Intracellular sodium concentration.
Data set [6] concerns cerebrocortical neurons. The data set is described as follows: Membrane potential assay.
The next data set relates to Src kinase.
Where [7] appears, read: 15 min preincubation with 10 μM PP2 or PP3, after PbTx-2.
Where [8] appears, read: 15 min preincubation with 10 μM PP2 or PP3, before PbTx-2.

Values joined by “and” are separate entries in the source; they are usually repeats but may differ in a detail not shown here. Identical values can stand only once. “Also recorded” adds a separate entry of the source. Like-named read-outs stand apart in the source and are kept apart here.

Turning to `C[C@]12N[C@H](Cc3ccccc31)c1ccccc12` [MK-801], in the data set on cerebrocortical neurons [1], the “effect on PbTx-2 enhanced neurite outgrowth” value is listed as “abrogated” and the “total neurite length, inhibitor plus 30 nM PbTx-2” value is 83.1± 5.26 μm.
On to `CN[C@H](CC(=O)O)C(=O)O` [NMDA], for which, in the data set on cerebrocortical neurons [2] (3 μM NMDA, DIV-2 neurons), the “effect of NMDA alone on [Ca2+]i” value was “did not affect [Ca^2+]i”. The EC50 with cerebrocortical neurons [2] (read-out: EC50 for NMDA-induced Ca2+ influx, DIV-4 neurons, absence of PbTx-2) is 19.2 µM; with cerebrocortical neurons [2] (read-out: EC50 for NMDA-induced Ca2+ influx, DIV-9 neurons, absence of PbTx-2) it was 11.1 µM; in the data set with cerebrocortical neurons [3] (read-out: EC50 for LDH efflux, DIV-9 neurons, 95% CI 27.9–101 μM), 53.1 µM; in the data set with cerebrocortical neurons [4], 82.2 µM. In addition, the “sensitivity to NMDA-induced LDH efflux” value with cerebrocortical neurons [3] (2, 4 and 6 DIV cultures, after 2 h exposure or at 24 h post-exposure) is “little sensitivity”. The “maximal LDH efflux” value in the data set on cerebrocortical neurons [3] (DIV-9 cultures, 24 h after initiation of 2 h NMDA exposure) is 247 ± 10.5 % of control.
As to `Nc1ncnc2c1cnn2-c1ccccc1` [PP3, 4-Amino-7-phenylpyrazol [3,4-d] pyrimidine], in the data set with NMDA receptors (setting [7]), the “mean open time, inhibitor plus PbTx-2” value is 3.87 ± 0.15 ms and the “open probability (Po), inhibitor plus PbTx-2” value is given as 0.013 ± 0.003. Besides, in the data set on NMDA receptors (setting [8]), the “mean open time, inhibitor alone (control)” value came to 1.39 ± 0.09 ms and the “open probability (Po), inhibitor alone (control)” value is 0.0032 ± 0.0005.
Consider `C=C(C=O)C[C@@H]1C[C@H](O)[C@]2(C)O[C@@H]3C[C@@H]4O[C@@H]5C[C@]6(C)O[C@]7(C)CC[C@@H]8O[C@@H]9C[C@]%10(C)O[C@@H]%11C(C)=CC(=O)O[C@H]%11C[C@H]%10O[C@H]9C[C@@H](C)[C@H]8O[C@H]7C[C@H]6O[C@H]5C/C=C\[C@H]4O[C@H]3C[C@H]2O1` [PbTx-2, Brevetoxin-2], for which, in the data set with NMDA receptors, the “amplitude of single channel currents” value is 6.8 ± 0.4 pA; the “effect on membrane potential from single channel NMDA receptor currents” value is “did not affect”; the “open probability (Po) of NMDA receptors” value is reported as 0.031 ± 0.008; the “open time histogram, first time constant (area)” value was 1.6 (65%). Besides, in the data set with NMDA receptors, the “open time histogram, second time constant (area)” value is 4.1 (35%); the “shut time histogram, first time constant (area)” value is reported as 0.63 (45%); the “shut time histogram, fourth time constant (area)” value is recorded as 1361 (11%); the “shut time histogram, second time constant (area)” value is 10.0 (16%). The “shut time histogram, third time constant (area)” value in the data set on NMDA receptors is 180 (28%). Moreover, in the data set with cerebrocortical neurons [5], the “[Na+]i increment over basal” value came to 8.8 ± 1.8 mM, the “concentration-response profile of [Na+]i” value is “hormetic profile”, the “maximum [Na+]i” value is 16.9 ± 1.5 mM and the “maximum elevation of [Na+]i (concentration-response)” value was 36.6 ± 0.9 mM. In addition, the concentration for a half-maximal effect (EC50) with cerebrocortical neurons [5] (read-out: EC50 for PbTx-2-induced elevation of [Na+]i) turned out to be 0.0433 µM. In the data set with cerebrocortical neurons [2], the “Ca2+ influx pathway stimulated” value was “primarily through NMDA receptors; also recorded: through both L-type calcium channels and NMDA receptors”; the “effect of PbTx-2 alone on [Ca2+]i” value was “did not alter [Ca^2+]i”; the “effect of PbTx-2 alone on fluo-3 fluorescence” value is recorded as “did not increase fluo-3 fluorescence”; the “effect on NMDA-induced Ca2+ influx” value is “robust potentiation”. For the same molecule, in the data set on cerebrocortical neurons [2] (read-out: EC50 for PbTx-2-stimulated increase in [Ca2+]i), the half-maximal effective concentration (EC50) was determined as 0.244 µM. Moreover, in the data set on cerebrocortical neurons [6], the “membrane potential after PbTx-2” value was 29.3 ± 0.02 mV and the “membrane potential change (depolarization)” value was 0.2 ± 0.02 mV. Also, in the data set on cerebrocortical neurons [6] (read-out: EC50 for increment in FMP blue fluorescence (membrane potential)), the EC50 was determined as 0.0967 µM. The “phosphorylation of tyrosine 416 of Src” value in the data set with Src kinase was “significant increase”. The total neurite length in the data set on cerebrocortical neurons [1] is 265.8 ± 20.86 μm and 166.5 ± 17.9 μm.
Turning to `O=C(O)c1ccc2c3c1cccc3c(=O)n1c3ccccc3nc21` [STO-609, 1,8-naphthoylene benzimidazole-3-carboxylic acid], in the data set with cerebrocortical neurons [1], the “effect on PbTx-2 enhanced neurite outgrowth” value is “completely blocked”.
Take `NC1=N[C@H](O)[C@H]2[C@H]3O[C@]4(O)O[C@@H]([C@@H](O)[C@@]2(N1)[C@@H]4O)[C@]3(O)CO` [TTX, tetrodotoxin]: in the data set on cerebrocortical neurons [1], the “effect on PbTx-2 enhanced neurite outgrowth” value was “completely blocked”; the “total neurite length, inhibitor alone” value worked out at 185 ± 13.2 μm; the “total neurite length, inhibitor plus 30 nM PbTx-2” value is 190.2 ± 10.7 μm.

For orientation: EC50 means the midpoint of the concentration-response curve.
